Assay results as given in US20110269718A1, “PHARMACEUTICAL COMPOSITION CONTAINING MALATHION AND VOLATILE CYCLIC SILICONE” (priority 2010, published 2011).

What was measured:
[1] = Stability of malathion compositions, degradation measured by HPLC; assay type: physicochemical
Procedure: The inventors measured malathion degradation by HPLC. The HPLC method was reverse-phase HPLC with UV detection (210 nm). The column used is an xTERRA C18 with a water/acetonitrile gradient and a flow rate of 0.6 ml/min. The malathion compositions tested comprise either malathion on its own, or a composition of 50% malathion and 50% isopropanol, or a composition of 50% malathion and 50% polydimethylcyclosiloxane, or a composition of 33% malathion with 33% isopropanol and 33% polydimethylcyclosiloxane. These compositions also contain excipients such as povidone as viscosity agent.
The stability of these compositions was assessed for 114 hours at 60° Celsius (Table 1).

lice = experiment: Pediculicidal activity of volatile silicone oil itself (stated, no method); assay type: in vivo, Pediculus humanus var capitis
nits = experiment: Nit-killing activity of volatile silicone oil itself (stated, no method); assay type: in vivo, Pediculus humanus var capitis

Structure (SMILES)	Malathion content (%) ([1]; T0)	Malathion content (%) ([1]; T 72 hrs 60° C.)	Malathion loss (%) ([1]; T 72 hrs 60° C.)	Malathion content (%) ([1]; T 114 hrs 60° C.)	Malathion loss (%) ([1]; T 114 hrs 60° C.)	pediculicidal activity (lice) [%]	nit-killing activity (nits) [%]
CCOC(=O)CC(SP(=S)(OC)OC)C(=O)OCC (stereo not shown) [Malathion alone, malathion]	100.90	100.3	(−0.1) %	91	(−9.8) %	–	–
C[Si]1(C)O[Si](C)(C)O[Si](C)(C)O[Si](C)(C)O[Si](C)(C)O1 [decamethylcyclopentasiloxane]	–	–	–	–	–	100	~70
